Experiments:
[1] = target: T1, RSV pre-fusion F protein of SEQ ID NO: 10 (Human respiratory syncytial virus A, UniProt P03420, D486N/DEL108-136/I379V/M447V/N67I/P102A/S215P); format: physicochemical; details: for trimer % after slow freeze with compound vs without: all formulation buffers (AP1, FB12, formulation 1 and 2); for aggregation after slow freeze: formulation 5b (pH 8.3) and 5a (pH 7.0)
T1 construct: made in house
Experimental: The RSV pre-fusion F protein of SEQ ID NO: 10 was diluted to 0.3 mg/ml in phosphate buffer (Formulation 1) and 0.75 ml was filled in glass injection vials with rubber stopper and sealed with aluminum caps. Additionally, protein was diluted in the formulation buffers with inhibitor in a 1:3 trimer:compound ratio. One inhibitor binds one trimer so with a 1:3 ratio there is an excess of inhibitor. […] In 24 hours, samples were cooled down from RT to −70° C. Samples were thawed to RT and analyzed by analytical Size Exclusion Chromatography (SEC) to measure loss of RSV F trimer.
0.75 ml of each formulation was filled in glass injection vials with rubber stopper and sealed with aluminum caps. Additionally, protein was diluted in the formulation buffers and inhibitor was added in a 1:1, 1:3, 1:9, 1:27 and 1:50 trimer: compound ratio. Final compound concentrations were 1.7×10^−6 M, 5.2×10^−6 M, 1.6×10^−5M, 4.6×10^−5, and 8.6×10^−5 M, respectively. Vials were slowly frozen to −70° C. in 24 hours. Samples were subsequently thawed to RT and analyzed by analytical Size Exclusion Chromatography (SEC) to measure loss of RSV F trimer compared the sample that was kept at 4° C.

[2] = target: T2, RSV pre-fusion F (preF) protein of SEQ ID NO: 10 (Human respiratory syncytial virus A, UniProt P03420, D486N/DEL108-136/I379V/M447V/N67I/P102A/S215P); format: physicochemical; details: with compound 1:3 trimer:compound in sample and UF/DF buffer; formulation 2 without PS20; two weeks after UF/DF
T2 construct: made in house
Experimental: The UF/DF was performed with and without compound. […] A kDa filter in the UF/DF (Cogent μscale TFF system (Merck Millipore, Burlington, MA)) was used and a diavolume of 350 ml UF/DF buffer was used.
After the UF/DF the hydrodynamic diameters were measured by Dynamic Light Scattering (DLS) UNcle from vendor Unchained Labs (Pleasanton, CA, US) two weeks after the UF/DF.

HIV Env ConB SOSIP = target: T3, HIV Env ConB SOSIP (Human immunodeficiency virus type 1 group M subtype B, UniProt P04578, A336T/A346V/A501C/A612T/D137T/D187N/D632E/D99N/DEL145-146/DEL310-311/DEL356-356/DEL401-405/DUP460-460/E409T/E464T/E509R/E620D/E630Q/F175L/F396S/G167D/G321D/H625N/H643Y/I148K/I181V/I182V/I320G/I360V/I467T/I559P/I580V/INS134N/INS317Y/INS395N/INS508RR/K130N/K135N/K192R/K322I/K362N/K429E/K510R/L518M/M147E/M326I/M535I/N230D/N325D/N624D/N636D/Q621E/R306S/R308H/S128T/S162T/S347K/S387T/S398G/S411N/S440R/S461N/S465T/S640G/S644T/T140N/T188N/T194I/T232K/T290E/T31A/T373M/T605C/T626M/V275E/V318A/V87E); assay: Storage stability of ConB-SOSIP Env, antigenicity by AlphaLISA (bNAbs / non-bNAbs); format: binding, HIV-1; details: 1 week at 4° C., 50-fold excess
T3 construct: made in house; host or cells: HEK293F
Experimental: HIV env trimer was incubated in Citrate buffer (20 mM Citrate. 75 mM NaCl 5% Sucrose, 0.03% Tween-80 pH 6.0) at 0.8 mg/ml for 1 week at 4° C. with or without inhibitor. Entry inhibitor XVII was added in a 50-fold excess to the purified Env ConB SOSIP. As the inhibitor was dissolved in DMSO, the control sample with only Env contained the same concentration of DMSO (1.95% v/v) as the Env with the inhibitor. The quality of HIV Env can be evaluated with broadly neutralizing antibodies (bNAbs) that bind the closed, native pre-fusion conformation of Env, versus non-broadly neutralizing antibodies (non-bNAbs) which recognize non natively folded Envs (Rutten et. al., Cell Reports 18). […] Preferential binding to bNAbs was higher and binding to all five tested non-bNAbs, except for 447-52D, was decreased for the composition that contained the inhibitor.

HIV-1 ConB-SOSIP Env = HIV-1 ConB-SOSIP Env (Human immunodeficiency virus type 1 group M subtype B, UniProt P04578, A336T/A346V/A501C/A612T/D137T/D187N/D632E/D99N/DEL145-146/DEL310-311/DEL356-356/DEL401-405/DUP460-460/E409T/E464T/E509R/E620D/E630Q/F175L/F396S/G167D/G321D/H625N/H643Y/I148K/I181V/I182V/I320G/I360V/I467T/I559P/I580V/INS134N/INS317Y/INS395N/INS508RR/K130N/K135N/K192R/K322I/K362N/K429E/K510R/L518M/M147E/M326I/M535I/N230D/N325D/N624D/N636D/Q621E/R306S/R308H/S128T/S162T/S347K/S387T/S398G/S411N/S440R/S461N/S465T/S640G/S644T/T140N/T188N/T194I/T232K/T290E/T31A/T373M/T605C/T626M/V275E/V318A/V87E); assay: Thermostability of HIV-1 ConB-SOSIP Env by nanoDSF; format: physicochemical; details: 50-fold molar excess of inhibitor; Env 0.8 mg/ml; DMSO 1.95% v/v

## CS(=O)(=O)CCCn1c(Cn2c(=O)n(C3CC3)c3ccncc32)nc2cc(Cl)ccc21 [Compound II, 3-[[5-chloro-1-(3-methylsulfonylpropyl)benzimidazol-2-yl]methyl]-1-cyclopropyl-imidazo[4,5-c]pyridin-2-one]
[1]
  trimer % after slow freeze with compound vs without: higher trimer %
  aggregation after slow freeze: no aggregations were observed
[1]; phosphate buffer (Formulation 1), preF 0.3 mg/ml, 1:3 trimer:compound, RT to −70° C. in 24 hours
  trimer signal lost after slow freeze/thaw (analytical SEC): 2.4+/−1.9%

## CS(=O)(=O)CCCn1c(Cn2c(=O)n(CC(F)(F)F)c3ccncc32)cc2cc(Cl)ccc21 [Compound IV, 3-[[5-chloro-1-(3-methylsulfonylpropyl)indol-2-yl]methyl]-1-(2,2,2-trifluoroethyl)imidazo[4,5-c]pyridin-2-one]
[1]
  trimer % after slow freeze with compound vs without: higher trimer %
  aggregation after slow freeze: no aggregations were observed
[2]
  hydrodynamic diameter (DLS) after UF/DF: 8.65 nm

## COc1ccnc2[nH]cc(C(=O)C(=O)N3CCN(C(=O)c4ccccc4)C[C@H]3C)c12 [XVII, 1-[(2R)-4-benzoyl-2-methyl-piperazin-1-yl]-2-(4-methoxy-1H-pyrrolo[2,3-b]pyridin-3-yl)ethane-1,2-dione]
HIV Env ConB SOSIP
  binding to bNAbs vs Env without inhibitor: higher
  binding to five tested non-bNAbs, except for 447-52D, vs Env without inhibitor: decreased
HIV Env ConB SOSIP; Citrate buffer pH 6.0
  quality of HIV Env by antigenicity (AlphaLISA) vs Env without inhibitor: superior
HIV-1 ConB-SOSIP Env
  increase of melting temperature of Env (nanoDSF): ~5 °C

From patent US20230310573A1, “Stabilized Vaccine Compositions” (priority 2020, published 2023)
